Reference: US20260199296A1, “AGENT FOR PREVENTING OR AMELIORATING ITCH” (KAO CORPORATION, priority 2022, published 2026)

Columns and labels:
[1] = test system: AD model mice (NC/Nga); experiment: Amelioration of pruritus in AD model mice by ozanimod (fur mite-parasitized NC/Nga); format: in vivo, mouse; conditions: oral, 3 mg/mL suspension at 10 ml/kg; measurement time 22 hours; FIG. 9
Experimental: NC/Nga mice were parasitized with mouse fur mites (M. musculi) to spontaneously generate dermatitis, and were used as an AD model. Fourteen-week-old males having developed dermatitis were used. After one week of acclimation, the back of their necks was shaved and their scratching behavior was measured. The mice were divided into two groups of eight mice each to ensure an equal number of scratching behaviors.
(§1) Ozanimod (Selleck Biotech) was used. Carboxymethyl cellulose (Maruishi Pharmaceutical Co., Ltd.) prepared at 0.5% with water for injection was used as a solvent. The weighed ozanimod was lightly crushed using an agate pestle, and then the solvent dropwise addition and mixing were repeated to obtain a suspension (3 mg/mL). The preparation was done on the day of administration and stored at room temperature until administration.
The dosage (10 ml/kg) was calculated by measuring body weight, and the prepared evaluation samples were administered orally with an oral gavage needle for mice and a disposable syringe.
(§2) MicroAct (Neuroscience) was used to measure the scratching behavior. […] Measurements were made on the day before (before administration) and on the day of administration (after administration) of ozanimod, and the antipruritic effect of ozanimod was evaluated by comparing the number of scratching behaviors before and after administration.

[2] = target: T1, human C3a receptor (Homo sapiens, UniProt Q16581); experiment: Ca2+-flux assay in HEK293 cells expressing human C3a receptor and GNA16; format: cell-based; conditions: ligands mouse TLQP-21 1 μM or human C3a recombinant protein 300 nM, Fluo-4, HEK293, FIG. 1
T1 construct: host or cells: HEK293
T1 sequence (Q16581 1-482): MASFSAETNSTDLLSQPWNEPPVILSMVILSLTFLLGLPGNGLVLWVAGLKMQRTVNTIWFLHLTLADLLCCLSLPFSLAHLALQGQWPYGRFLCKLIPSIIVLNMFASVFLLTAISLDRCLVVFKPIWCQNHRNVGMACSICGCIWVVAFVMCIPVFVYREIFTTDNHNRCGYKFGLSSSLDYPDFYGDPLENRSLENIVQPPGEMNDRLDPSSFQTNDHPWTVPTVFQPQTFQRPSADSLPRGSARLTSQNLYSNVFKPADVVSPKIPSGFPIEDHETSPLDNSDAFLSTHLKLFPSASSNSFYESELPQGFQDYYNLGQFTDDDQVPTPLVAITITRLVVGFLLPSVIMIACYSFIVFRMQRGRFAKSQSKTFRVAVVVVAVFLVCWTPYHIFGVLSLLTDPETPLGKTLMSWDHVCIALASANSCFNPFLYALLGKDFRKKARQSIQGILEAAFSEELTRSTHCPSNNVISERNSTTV
From the text: Mouse TLQP-21 (Tocris Bioscience, sequence: TLOPPASSRRRHFHHALPPAR, the same applies hereinafter) and human C3a recombinant protein (R&D systems) were used. The solvent was HBSS (Gibco).
The compound 1 (L-arginine, N2-[[5-(diphenylmethyl)-2-thienyl]carbonyl]) synthesized in accordance with a previous report (Rowley, J. A. et al. Journal of Medicinal Chemistry, 2020; 63 (2): 529-541) and ozanimod (Cayman Chemical) were used as C3a receptor antagonists. In the following evaluation, the compound 1 and ozanimod were dissolved in DMSO and diluted with HBSS as appropriate.
Human Embryonic Kidney cells 293 (HEK293) were used, into which the expression vectors necessary for evaluation were introduced according to the following. […]
The cells for evaluating C3a receptor response described above were seeded in a BioCoat (Registered Trademark) Poly-D-Lysine 96-well Black Flat Bottom Microplate (CORNING). […] After 15 minutes, C3a receptor ligand solution (mouse TLQP-21 solution or human C3a recombinant protein solution) was added for C3a receptor stimulation, and the Ca^2+ influx associated with the stimulation was measured over time as intracellular fluorescence intensity (Ex: 480 nm, Em: 540 nm). The value obtained by subtracting the measured value when HBSS was added instead of the C3a receptor ligand solution (blank) was used as the measured value. […]

[3] = test system: ANIT model mice (C57BL/6J); experiment: Amelioration of pruritus in model mice of pruritus associated with cholestasis (ANIT model) by ozanimod; format: in vivo, mouse; conditions: oral, 3 mg/mL suspension at 10 mL/kg; measurement time 22 hours; FIG. 10
Experimental: Shaved male C57BL/6J mice were used. To eight-week-old C57BL/6J mice, α-naphthyl isothiocyanate (ANIT) dissolved in olive oil (FUJIFILM Wako Pure Chemical) was orally administered once daily for 10 days with an oral gavage needle for mice and a disposable syringe. Before administration, body weight was measured to ensure administration at 25 mg/10 mL/kg (ANIT model).
as §1
The dosage (10 mL/kg) was calculated by measuring body weight, and the prepared evaluation samples were administered orally with an oral gavage needle for mice and a disposable syringe.
as §2

[4] = test system: AEW model mice (C57BL/6J); experiment: Amelioration of pruritus in AEW model mice by C3a receptor antagonist; format: in vivo, mouse; conditions: 0.5 mg/mL, 200 μL subcutaneously, once daily for 8 days; measured for 3 hours after last administration; FIG. 8
From the text: The animals used were male C57BL/6J mice. Preparation of AEW model: The back of the neck was shaved, and absorbent cotton soaked with a 1:1 (v/v) mixture of acetone and diethyl ether was applied and allowed to stand for 15 seconds. Immediately thereafter, absorbent cotton soaked with water was applied for 30 seconds. This treatment was repeated twice/day (morning and evening) for 7 days.
(§3) The compound 1, whose C3a receptor antagonism was confirmed in Example 1 above, was used as a C3a receptor antagonist. The compound 1 was dissolved in saline containing 20% polyethylene glycol 400, of which 200 μL was administered subcutaneously to the back of the neck. The control group was administered the same amount of only the above solvent. The concentration of the C3a receptor antagonist solution was set at 0.5 mg/mL. Sample administration started after the first AEW treatment and was performed at a frequency of once daily for 8 days.
Sixteen hours after the last AEW treatment, the scratching behavior was measured for 3 hours after the last administration of the sample. MicroAct (Neuroscience) was used to measure the scratching behavior.

[5] = test system: AD model mice (NC/Nga); experiment: Amelioration of pruritus in AD model mice by C3a receptor antagonist (mite allergen ointment-induced); format: in vivo, mouse; conditions: 0.5 mg/mL, 200 μL subcutaneously, three times a week; measured for 3 hours after last administration; FIG. 7
Experimental: Seven-week-old female NC/Nga mice were used. Preparation of AD model mice: The back of the neck was shaved, and 100 mg of an ointment containing mite allergen: Biostir AD (Biostir Inc.) was applied to the back of the neck and auricular region under isoflurane anesthesia for initial sensitization. Four days after the first application of the ointment containing mite allergen, 150 μL of 4% (w/v) SDS solution and 100 mg of ointment containing mite allergen were applied to the back of the neck and auricular region under isoflurane anesthesia. Thereafter, the same procedure was performed four times at a frequency of once every 3 to 4 days to induce AD-like dermatitis.
as §3, with “Sample administration started after the first AEW treatment and was performed at a frequency of once daily for 8 days.” left out
Four days after the last application of the ointment containing mite allergen, the scratching behavior was measured for 3 hours after the last administration of the sample. […]

Row | fluorescence intensity due to C3a receptor stimulation by C3a receptor ligands (integrated value vs control = 100%) ([2]; compound at 10 μM) | fluorescence intensity due to C3a receptor stimulation by C3a receptor ligands (integrated value vs control = 100%) ([2]; compound at 1 μM) | Compound | scratching behavior (events) after vs before administration [1] | scratching behavior (events) after vs before administration [3] | scratching behavior compared to AEW model mice administered with solvent alone [4] | scratching behavior compared to AD model mice administered with solvent alone [5]
1 | suppressed | – | CC(C)Oc1ccc(-c2nc(-c3cccc4c3CCC4NCCO)no2)cc1C#N (stereo not drawn) [ozanimod, 5-[3-[1-(2-hydroxyethylamino)-2,3-dihydro-1H-inden-4-yl]-1,2,4-oxadiazol-5-yl]-2-isopropoxybenzonitrile] | significant decrease | significant decrease | – | –
2 | – | suppressed | N=C(N)NCCC[C@H](NC(=O)c1ccc(C(c2ccccc2)c2ccccc2)s1)C(=O)O [compound 1, L-arginine, N2-[[5-(diphenylmethyl)-2-thienyl]carbonyl]] | – | – | significant decrease | significant decrease
